Measurements: patent publication US7803350B2, “Radioactive arsenic-containing compounds and their uses in the treatment of tumors” (Institute of Nuclear Energy Research Rocaec, priority 2003, dated 2010)
Values joined by “and” are separate entries in the source; they are usually repeats but may differ in a detail not shown here. Equal values may be shown once.

How the values were obtained:
[1] = test system: acute promyelocytic leukemia cell lines; conditions: cited from earlier work
[2] = test system: N1-S1 rat hepatoma liver tumors; assay: Therapeutic effect assessment, liver tumor direct injection, rats with liver tumors; assay type: in vivo; conditions: for Survival time / Response: individual rats, liver tumor direct injection 0.45 mg/kg once every week, twice in total; for Change of tumor size 4 weeks after injection: liver tumor direct injection
From the text: (§1) The tumor cells for the establishment of the animal model with liver tumor were of a rat hepatoma cell line, N1-S-1, purchased from the American Type Culture Collection (ATCC, P.O. Box 1549, Manassas, Va. 20108 USA), and were subcultured to set up a Master Cell Bank and a Working Cell Bank.
(§2) The rat hepatoma cells, N1-S1, were suspended cells that were dispersed in Iscove's Modified Dulbecco's Medium (IMDM) (GibcoBRL®) supplemented with 1% penicillin (GibcoBRL®) and 10% fetal bovine serum (GibcoBRL®), and were cultured in an incubator with 5% CO2, at 37° C.
(§3) When cultured to 1.5×10^6 cell/ml, 4×10^6 cell/0.06 ml of N1-S1 cells were sampled and then implanted into Spawn-Dawley male rats (5-week-old, 150 g) between the liver and liver capsule by surgery, and the wounds were closed by sutures. Rearing of the rats was continued for ten days, and ultrasonic scanning was used to detect any growth of liver tumor and tumor size. After scanning, animals that had developed liver tumors were used to conduct the experiments of tumor growth inhibition, and euthanasia was practiced on the rest of the rats.
The rats with liver tumors were subjected to surgery. After the locations of the liver tumors were found, the tumors were directly injected with normal saline, an injection containing arsenic trioxide without neutron irradiation treatment (concentration: 1 mg/ml; animal injection dosage: 0.45 mg/kg), and the injection prepared in Example 1 which contained radioactive arsenic trioxide having subjected to neutron irradiation treatment (radiation activity range: 2.77˜3.25 mCi/ml; concentration: 1 mg/ml of concentration; and animal injection dosage: 0.45 mg/kg), respectively, once every week, twice in total.
(§4) Before injection, the size of the liver tumors was examined by ultrasonic scanning. Ultrasonic scanning was conducted in the first week, the second week, and the fifth week, respectively, after start of the injection to observe the change in size of the tumor. Finally, the rats were sacrificed for observing whether there was metastasis.

[3] = test system: acute promyelocytic leukemia; conditions: cited from earlier work
[4] = test system: N1-S1 rat hepatoma liver tumors; assay: Therapeutic effect assessment, hepatic artery single injection, rats with liver tumors; assay type: in vivo; conditions: for Therapeutic effect on the tumors: hepatic artery single injection
From the text: as §1, §2, §3
The blood vessels of the hepatic artery were dissected from the hepatic tissue of the rats by surgery, and normal saline, an injection solution containing arsenic trioxide without neutron irradiation treatment (concentration: 1 mg/ml; and animal injection dosage: 0.45 mg/kg), and the injection solution prepared in Example 1 which contained radioactive arsenic trioxide having subjected to neutron irradiation treatment (radioactivity range: 2.77˜3.25 mCi/ml; concentration: 1 mg/ml; and animal injection dosage: 0.45 mg/kg dose), were injected respectively via the hepatic artery in single injections.
as §4

[5] = test system: N1-S1 rat hepatoma liver tumors; assay: Therapeutic effect assessment, continuous tail vein injection, rats with liver tumors; assay type: in vivo; set-up: key to Response: Increase in size of tumor (In %) is classified as “Poor Response”; decrease in size of tumor within 0%-40% is classified as “Mild Response”; decrease in size of tumor to 50% or more or disappearance of tumor is classified as “Good Response.”; conditions: for Effect on the inhibition of tumor growth / Survival of the group in week 8: continuous tail vein injection; for Response / Survival time: individual rats, continuous tail vein injection 0.45 mg/kg for two weeks
From the text: as §1, §2, §3
The rats with liver tumors were given normal saline, an injection solution containing arsenic trioxide without neutron irradiation treatment (concentration: 1 mg/ml; animal injection dosage: 0.45 mg/kg), and the injection solution prepared in Example 1 which contained radioactive arsenic trioxide having subjected to neutron irradiation treatment (radioactivity range: 2.77˜3.25 mCi/ml; concentration: 1 mg/ml; and animal injection dosage: 0.45 mg/kg), respectively, via tail vein injection, and the injection was continued for two weeks.
as §4, with “the injection so as to observe” for “the injection to observe”

[6] = Radiation absorption dose in organs or tissues and tumors (MIRD method, MIRDOSE 3); assay type: in vivo, rats; conditions: for Radiation absorption dose, Lung: rats with liver tumors
Protocol: (§5) A fixed amount of radioactive arsenic trioxide (radioactivity range: 2.77˜3.25 mCi/ml, concentration: 1 mg/ml, animal injection dose: 0.45 mg/kg) prepared in Example 1 was injected into the rats with liver tumors through the hepatic artery and tail vein, respectively.
(§6) The rats were sacrificed by taking a large amount of blood from the heart at hours 2, 4, 16, 24 and 48, respectively, after injection, and the blood, hearts, lungs, livers, spleens, kidneys, intestines, bladders, muscles, and tumors were removed. These tissues or organs were placed in respective tubes, and their irradiation intensity was measured by a gamma counter (Wallac 1470 WIZARD). The content percentage of arsenic trioxide per each gram of the tissue or organ was calculated using standard curve regression. There were two or three experimented rats in each experimental group.
Radioactive arsenic trioxide was injected respectively into the tail vein and hepatic artery of the rats by I.V. and I.H. The dosage was calculated using MIRD method, and the residence time in each of the organs and the tumors was calculated using Excel software. Finally, the radiation absorption dose in each of the organs or tissues and the tumors was calculated using MIROSE 3 software.

[7] = Biodistribution test of radioactive arsenic trioxide in rats with liver tumors (gamma counter); assay type: in vivo
Protocol: Hepatic Artery Injection:
The hepatic artery was dissected from the hepatic tissue of the rats by surgery. A PE-10 tube was introduced into the hepatic artery, and the test solution containing neutron-irradiated arsenic trioxide as prepared in Example 1 was injected into the hepatic artery. The PE-10 tube was removed after injection, and a surgical thread was used to bind and fix the blood vessels, followed by suturing of the wound.
The test injection solution containing neutron-irradiated arsenic trioxide as prepared in Example 1 was injected into the tail vein using a syringe with needle no. 25.
as §5, §6
Some of the organs and tissues (blood, kidneys and livers) were transferred to the Institute of Nuclear Energy Research for conducting Inductively Coupled Plasma Mass Spectrometry (ICP-MAS) so as to observe the biodistribution of arsenic trioxide in the tumors and organs or tissues.

[8] = individual rats, hepatic artery single injection 0.45 mg/kg, 0.45 mg/kg
[9] = individual rats, hepatic artery single injection 0.45 mg/kg

arsenic trioxide [reference compound]
Concentrations inducing cell differentiation ([1]; low concentrations): 0.1 to 0.5 µmol/L | Concentrations triggering apoptosis ([1]; relatively high concentrations): 0.5 to 2 µmol/L | Survival time [2]: >30 days | Response ([2]; 0.45 mg/kg): Mild (decrease in size of tumor within 0%-40% is classified as “Mild Response”) and Poor and Good (decrease in size of tumor to 50% or more or disappearance of tumor is classified as “Good Response.”) | Change of tumor size 4 weeks after injection [2]: slightly smaller than the size of the tumors 1 week after injection, while the tumors in some of the animals still grew | Side effects (gastrointestinal disturbance, facial edema and cardiac toxicity) ([3]; low-dose, 0.08 mg/kg daily for 28 days intravenously): reduced | complete remission rate ([3]; patients with relapsed acute promyelocytic leukemia, intravenously 0.08 mg/kg daily for 28 days): 80% | complete remission (CR) rate ([3]; patients with relapsed acute promyelocytic leukemia, intravenously 10 mg/d): 90% | Therapeutic effect on the tumors [4]: not satisfactory | Response [4, 8]: Mild (decrease in size of tumor within 0%-40% is classified as “Mild Response”) (2×) and Poor (2×) | Survival time [4, 8]: >42 day (2×) and 36 day and 39 day | Effect on the inhibition of tumor growth [5]: not significant | Survival of the group in week 8 [5]: still alive in week 8 | Response ([5]; 0.45 mg/kg): Poor (3×) and Mild (decrease in size of tumor within 0%-40% is classified as “Mild Response”) (2×) | Survival time ([5]; 0.45 mg/kg): 14 day (2×) and 42 day and 7 day and 40 day

O=[76As]O[76As]=O (stereo not shown) [Radioactive arsenic trioxide, radioactive arsenic trioxide]
Radiation absorption dose, Intestine ([6]; IH (hepatic artery injection)): 0.23 mGy/MBq | Radiation absorption dose, Kidney ([6]; IH (hepatic artery injection)): 0.28 mGy/MBq | Radiation absorption dose, Liver ([6]; IH (hepatic artery injection)): 0.21 mGy/MBq | Radiation absorption dose, Muscle ([6]; IH (hepatic artery injection)): 0.12 mGy/MBq | Radiation absorption dose, Spleen ([6]; IH (hepatic artery injection)): 0.95 mGy/MBq | Radiation absorption dose, Tumor ([6]; IH (hepatic artery injection)): 21 mGy/MBq | Radiation absorption dose, Lung ([6]; IH (hepatic artery injection)): 0.56 mGy/MBq | Radiation absorption dose, Intestine ([6]; IV (tail vein injection)): 0.16 mGy/MBq | Radiation absorption dose, Kidney ([6]; IV (tail vein injection)): 0.25 mGy/MBq | Radiation absorption dose, Liver ([6]; IV (tail vein injection)): 0.13 mGy/MBq | Radiation absorption dose, Muscle ([6]; IV (tail vein injection)): 0.06 mGy/MBq | Radiation absorption dose, Spleen ([6]; IV (tail vein injection)): 0.76 mGy/MBq | Radiation absorption dose, Tumor ([6]; IV (tail vein injection)): 4.26 mGy/MBq | Radiation absorption dose, Lung ([6]; IV (tail vein injection)): 0.47 mGy/MBq | Contents of radioactive arsenic trioxide in the heart, the lung, and the spleen ([7]; 0.45 mg/kg, hepatic artery and tail vein injection, hours 2-48 (FIG. 3)): 1˜3 % ID/g | Residual contents in all the organs or tissues ([7]; 48 hours after injection, IV and IH (FIG. 3)): dropped | Time of peak content of radioactive arsenic trioxide in the liver tumor ([7]; hepatic artery injection, 0.45 mg/kg (FIG. 2)): between hours 2 and 4 | Time after which contents in the liver tumors by the two routes reached identical equivalent values ([7]; hepatic artery vs tail vein injection (FIG. 2)): 16 h | Contents in the bladder and urine relative to other tested organs ([7]; hour 4 after injection via hepatic artery and tail vein): second only to that in the tumor | Response [2]: Good (decrease in size of tumor to 50% or more or disappearance of tumor is classified as “Good Response.”) | Survival time [2]: >30 days | Change of tumor size 4 weeks after injection [2]: the tumors in all of the animals shrank in 4 weeks of injection | Therapeutic effect on the tumors [4]: complete disappearance of the tumors in some of the animals 2 weeks after injection | Response [4, 9]: Good (decrease in size of tumor to 50% or more or disappearance of tumor is classified as “Good Response.”) | Survival time [4, 9]: >42 days | Tumor Size After injection Week 2 [4, 8]: Disappeared | Tumor Size After injection Week 5 [4, 8]: Disappeared | Effect on the inhibition of tumor growth [5]: most noticeable | Survival of the group in week 8 [5]: all alive in week 8 | Response [5]: Good (decrease in size of tumor to 50% or more or disappearance of tumor is classified as “Good Response.”) | Survival time [5]: >56 days
